SMILES strings stand for the structures.

Drawing on PubChem BioAssay AID1963597 (National Center for Advancing Translational Sciences (NCATS), 2024), this text covers half-life for 87 compounds.

The subject of this data set is human liver microsomes, metabolic stability half-life. In words: NCATS Human Liver Microsomal (HLM) Stability Profiling. Particulars: higher = more stable; screened at 1 µM (by protocol). The procedure, abridged: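 Half-life derived from parent loss over 0–60 min (0, 5, 10, 15, 30, 60 min) at 37 °C. Incubations: 0.5 mg/mL microsomes, 1 µM test article, NADPH regeneration, pH 7.4 phosphate; quenched in acetonitrile containing albendazole, analysed by MS.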
For orientation: Liver microsomes are vesicles of endoplasmic reticulum, rich in cytochrome P450 enzymes.
In general, half-life refers to the time in which the quantity being followed falls by half. Compound `CC1CC(C)(C)N(C(=O)CN2C(=O)c3ccccc3C2=O)c2ccccc21` (configuration not stated) had a half-life of 8.38 min.
The figure for `CN(C)c1nc(Cc2ccc(NC(=O)c3ccc4ccccc4c3)cc2)nc(Cl)c1CC(=O)O` is greater than 120 min; for `CN1C2CCC(C)(C)C1CC(OC(=O)C(O)(c1cccs1)c1cccs1)C2` (configuration not stated) it is 26.5 min; for `NC(=O)N1CCC(CC(=O)N2CCC(C3c4ncc(Br)cc4CCc4cc(Cl)cc(Br)c43)CC2)CC1` (configuration not stated) it is 5.45 min.
Next, `NC1CCC(Nc2cc(-c3cccc(NCc4cccc(F)c4)n3)c(Cl)cn2)CC1` (configuration not stated): greater than 120 min; `COP(N)(=O)SC` (configuration not stated): 51.6 min; `CC(C)NC(=O)c1ccc(C=O)cc1`: 3.1 min.
Next, `COc1cc(N2CCN(C)CC2)ccc1Nc1nccc(-c2cn(C)c3cnccc23)n1`: greater than 120 min; `NC(=O)c1ccc(Cc2c(-c3cccc(-c4ccccc4)c3)[nH]n(-c3nc(C(=O)O)cs3)c2=O)cc1`: greater than 120 min; `CC(CCc1ccc(O)cc1)NCC(O)c1ccc(O)cc1` (configuration not stated): greater than 120 min.
`CCOC(=O)Nc1ccc(NCc2ccc(F)cc2)cc1N` displayed a half-life greater than 120 min.
Next, `NC(=O)N1c2ccccc2C=Cc2ccccc21`: greater than 120 min.
Next, `N#Cc1ccc(C(=O)Nc2ccc(Cl)c(-c3nc4ncccc4o3)c2)c(F)c1`: 10.3 min.
In turn, `O=C(CCCCCn1c(=O)c2sccc2n(CC(=O)Nc2cccc(Cl)c2)c1=O)NCc1ccc2c(c1)OCO2` returned a half-life of 9.36 min.
The figure for `CC1=CC(=O)c2ccccc2C1=O` is 11.4 min.
For the compound `O=C(Cn1cnc2onc(-c3ccc(F)cc3)c2c1=O)Nc1cccc(C(F)(F)F)c1`, the half-life came to 40.4 min.
Next, `C=Cc1cc(O)cc2nc(-c3ccc(O)c(F)c3)oc12`: 5.84 min; `CC(C)c1ccc(NC(=O)C(c2ccccc2)N(C)C(=O)Cc2c[nH]c3ccccc23)cc1` (configuration not stated): 7.38 min.
Next, `NC(=NCCCCCCN=C(N)/N=C(\N)Nc1ccc(Cl)cc1)/N=C(\N)Nc1ccc(Cl)cc1`: greater than 120 min.
Next, `Cc1cc(C(C)Nc2ccccc2C(=O)O)c2nc(N3CCOCC3)cc(=O)n2c1` (configuration not stated): greater than 120 min; `Cc1cccc(/C=N/Nc2cc(N3CCOCC3)n3nc(-c4ccncc4)cc3n2)c1`: 23.1 min; `C[C@]12C=CC(=O)C=C1CCC1C3C[C@@H](O)[C@](O)(C(=O)CO)[C@@]3(C)C[C@H](O)[C@@]12F` (some centres not stated): greater than 120 min.
Compound `CCOc1cc(=O)n2c(c1C(=O)Nc1ccc(C#N)cc1)CCCC2` registered a half-life greater than 120 min.
The figure for `O=c1[nH]c(=O)n([C@H]2C[C@H](O)[C@@H](CO)O2)cc1C(F)(F)F` is greater than 120 min; for `CS(=O)(=O)c1cccc(CNc2nc(Nc3ccc4c(c3)CCC(=O)N4)ncc2C(F)(F)F)c1` it is greater than 120 min; for `Cc1ccc(COC(=O)N2CC[C@@H](CNc3ncccn3)[C@@H](F)C2)cc1` it is 64.9 min.
The compound `CCCCC(CC)CN=C(N)NC(N)=NCCCCCCN=C(N)NC(N)=NCC(CC)CCCC` (configuration not stated) yielded a half-life greater than 120 min.
`O=C(Nc1ccnc(NC(=O)C2CC2)c1)c1c(Cl)cccc1Cl` showed a half-life greater than 120 min.
Next, `O=C(Cn1ncc2c([nH]c3ccccc32)c1=O)NCCCN1CCN(c2ccccc2)CC1`: greater than 120 min.
Compound `Nc1ncnc2c1c(COc1cccc(Cl)c1)nn2C1CCOCC1` yielded a half-life of 39.9 min.
The figure for `CC(C)C[C@H]1C(=O)N2CCC[C@H]2[C@]2(O)O[C@](NC(=O)[C@@H]3C=C4c5cccc6[nH]c(Br)c(c56)CC4N(C)C3)(C(C)C)C(=O)N12` (some centres not stated) is 0.89 min.
Next, `COc1ccc(C(=O)n2c(C)c(Cc3cccc(O[C@@H](C)C(=O)O)c3)c3cc(OC(F)(F)F)ccc32)cc1`: greater than 120 min; `COc1cc2ncnc(Nc3cc(Br)c(O)c(Br)c3)c2cc1OC`: greater than 120 min; `COc1ccc2c(c1)CCCC2=O`: 17.6 min.
Regarding `CC1(C)O[C@@H]2C[C@H]3[C@@H]4CCC5=CC(=O)C=C[C@]5(C)[C@@]4(F)[C@@H](O)C[C@]3(C)[C@]2(C(=O)CO)O1`, the half-life stood at 27.3 min.
Next, `COc1ccccc1N1CCN(CCCNc2cc(=O)n(C)c(=O)n2C)CC1`: greater than 120 min.
The figure for `CC(C)NC[C@H](O)c1ccc2ccccc2c1` is 18.8 min.
The figure for `CCOc1ccccc1NC(=O)CSc1nc2ccccc2c2nc(CCn3cncc3C)nn12` is 5.36 min; for `N#Cc1cccc(C(=O)Nc2cc(-c3ccccc3)nn2-c2ccccc2)c1` it is 18.7 min.
On to `CC(CC1c2ccccc2CCc2ccccc21)CN(C)C` (configuration not stated), for which the half-life was determined as 87.7 min.
Next, `CCOCCCNC(=O)CCC(=O)NNc1nc2ccccc2c2nc(-c3ccccc3)nn12`: 88 min; `COc1ccc(CNc2nc(N(CCO)CCO)nc3c2ncn3C(C)C)cc1`: 35.6 min; `O=C(CCNc1c(-c2ccccc2)nc2cnccn12)N1CCCC1`: 7.99 min.
The figure for `CCc1c(O)cc(O)c(C(=O)c2ccc(OCCN3CCOCC3)c(OC)c2)c1CC(=O)N(CCOC)CCOC` is 41.4 min.
Next, `COc1ccc(-n2nc3c(N4CCCC(C(=O)NCc5ccccc5C)C4)nnc(C)c3c2C)cc1` (configuration not stated): 2.48 min; `CCC[C@H](N[C@H]1CCc2cc(F)cc(F)c2C1)C(=O)Nc1cn(C(C)(C)CNCC(C)(C)C)cn1`: 3.12 min; `CCOC(=O)c1cc(=O)c2c(OCC(COc3cccc4oc(C(=O)OCC)cc(=O)c34)OC(=O)[C@@H](N)CCCCN)cccc2o1`: 4.47 min.
Consider `COc1ccc2c3c1O[C@H]1[C@@H](O)C=C[C@H]4[C@@H](C2)N(C)CC[C@@]341`, for which the half-life was 112 min.
`Cc1ccccc1-n1c(SCc2ccc(Cl)cc2)nc2[nH]ncc2c1=O` came in with a half-life of 53.2 min.
`Cc1noc(-c2ccc(-c3ccc(CC(=O)O)cc3)cc2)c1NC(=O)O[C@H](C)c1ccccc1Cl` came in with a half-life of 29.7 min.
Next, `O=C(NC1CCN(CCCCC2(C(=O)NCC(F)(F)F)c3ccccc3-c3ccccc32)CC1)c1ccccc1-c1ccc(C(F)(F)F)cc1`: 13.5 min; `Cc1cccc(NC(=O)Nc2cccs2)c1C`: 10.2 min.
Next, `CO[C@@H](Cc1ccc(OCCc2nc(-c3ccccc3)oc2C)c2ccsc12)C(=O)O`: 72.2 min.
For `CC(C)c1c(NC(=O)Nc2ccc(Cl)cc2)c(=O)n(-c2ccccc2)n1C`, the half-life was greater than 120 min.
The figure for `NC(=O)[C@H]1CCS[C@@H]2C[C@]3(CCCN3C(=O)Cc3ccc(NC(=O)COc4ccc(Cl)cc4Cl)cc3)C(=O)N12` is 7.68 min.
Next, `CCOCc1cc(CN2CCN(c3cccc(C(F)(F)F)c3)CC2)c(O)c2ncccc12`: 12.6 min; `N#Cc1c[nH]c2c(C(=O)N3CCN(CCc4ccc(F)cc4)CC3)cccc12`: 29.8 min.
Next, `CCCNC(=O)C1CCC(Cn2c(=O)c3sccc3n(CC(=O)NCc3ccccc3)c2=O)CC1` (configuration not stated): 11.2 min.
For the compound `CNCC[C@@H](Oc1ccccc1C)c1ccccc1`, the half-life turned out to be 23.9 min.
Next, `Cc1cccc(C(=O)O)c1O`: greater than 120 min.
Next, `Cn1c(=O)c2c(nc(CN3CCN(C(=O)C4CC4)CC3)n2Cc2ccccc2Cl)n(C)c1=O`: 24.1 min; `c1cc2c(c(N3CCNCC3)c1)OCCO2`: greater than 120 min; `CC(=O)OCC(=O)[C@@]12OC(C)(C)O[C@@H]1C[C@H]1[C@@H]3C[C@H](F)C4=CC(=O)C=C[C@]4(C)[C@@]3(F)[C@@H](O)C[C@@]12C`: 44.3 min.
Next, `CC(Cc1cccc(C(F)(F)F)c1)NCCOC(=O)c1ccccc1` (configuration not stated): 0.84 min; `Clc1cccc(N2CCNCC2)c1`: 39.8 min.
As to `O=C(O)c1ccc2c(c1)nc(Nc1cccc(Cl)c1)c1ccncc12`, the half-life was 82.5 min.
Next, `CCCCN(CCCC)CCC(O)c1cc2c(Cl)cc(Cl)cc2c2cc(C(F)(F)F)ccc12` (configuration not stated): 29.5 min; `COc1cc(Nc2nc3ccccc3nc2NS(=O)(=O)c2cccc(NC(=O)c3ccc(C)c(OC)c3)c2)cc(OC)c1`: 14 min; `CC(C)(N)c1ccc(-c2nc3ccccc3nc2-c2ccccc2)cc1`: greater than 120 min.
As for `CCOC(=O)C1(c2ccccc2)CCN(CCc2ccc(N)cc2)CC1`, the half-life came to 86.5 min.
The figure for `O=C(Nc1c(-c2cccs2)nc2ccccn12)c1ccc(Cl)cc1` is greater than 120 min; for `COc1ccc(C(=O)N2CCCC2=O)cc1` it is greater than 120 min; for `C[C@@H](Oc1cc(-n2cnc3ccc(OC4CCN(C)CC4)cc32)sc1C(N)=O)c1ccccc1C(F)(F)F` it is 8.99 min.
Next, `CC1(C#N)CCN(c2c(C(=O)N3CCN(C(=O)N4CCCC4)CC3)cnc3c(F)cc(F)cc23)CC1`: 27.2 min; `CCN1CCN(C(=O)c2ccc3c(c2)N(Cc2cc(C)ccc2C)C(=O)c2ccccc2S3(=O)=O)CC1`: 1.24 min.
The figure for `CCN(CC)C(=O)/C(Cl)=C(\C)OP(=O)(OC)OC` is greater than 120 min.
Regarding `CN1CCN(CCCN2c3ccccc3Sc3ccc(C(F)(F)F)cc32)CC1`, the half-life came to 22.5 min.
Next, `CCCCNC(=O)NS(=O)(=O)c1ccc(C)cc1`: 115 min; `C[C@]12CCC(=O)C=C1[C@@H]1C[C@@H]1[C@H]1[C@@H]3[C@@H]4C[C@@H]4[C@@]4(CCC(=O)O4)[C@@]3(C)CC[C@@H]12`: greater than 120 min; `CN1c2cc(C(=O)Nc3ccc(S(N)(=O)=O)cc3)ccc2C(=O)N2CCCCC21` (configuration not stated): 32.8 min.
Next, `Cc1ccc(-c2cc3ncc(C(=O)c4cc([N+](=O)[O-])ccc4O)cn3n2)cc1`: 4.91 min.
Next, `CC(=O)Nc1nnc(S(N)(=O)=O)s1`: greater than 120 min; `COc1ccc(-c2nc3ccccc3c(=O)n2Cc2ccco2)cc1COc1ccc(NC(C)=O)cc1`: 1.85 min; `Cc1ccc(N2CCN(C(=O)C3CCN(c4ncnc5c4nc4n5CCCCC4)CC3)CC2)c(C)c1`: greater than 120 min.
In turn, `COC1CCN(C(=O)c2cc(Cc3n[nH]c(=O)c4ccccc34)ccc2F)CC1` had a half-life of 76.1 min.
The figure for `COc1ccc2nc(S(=O)Cc3ncc(C)c(OC)c3C)[nH]c2c1` (configuration not stated) is greater than 120 min; for `CC(C)(C)c1ccc(C(=O)CCCCl)cc1` it is 3.84 min.
